A short description of experiment [1]: THP-1 cell cytotoxicity, dose response, cytotoxicity control for Vif-APOBEC3G degradation inhibitor project, THP-1 cells (AID 1117359). It counts as functional. The conditions noted are these: Human immunodeficiency virus 1, THP-1.
Experiment [2] in a line: cytotoxicity toward DRD oncogenic fibroblasts, dose response, cell-based, non-viral oncogenic, luminescence (AID 1934). The class given is functional. The conditions noted are these: Homo sapiens.
Experiment [3] deals with BJ. Kind of experiment: cytotoxicity toward BJ-TERT fibroblasts, dose response, cell-based, RAS-independent, luminescence (AID 1933). It counts as functional. To be noted: Homo sapiens.
Experiment [4] can be described thus: Luminescence Cell-Based Dose Confirmation HTS to Identify Inhibitors of Platelet Dense Granule Release. [Related pubchem assays: 1663 (Primary HTS), 1678 (Summary of Project)]. It counts as functional.
In experiment [5] the test system is BJ. Kind of experiment: cells. It counts as functional, cell-based. The conditions noted are these: Homo sapiens.
A short description of experiment [6]: microbe, parasite or virus in culture. The class given is functional. To be noted: Mycobacterium tuberculosis.
Experiment [7] has as its target Luciferin 4-monooxygenase (Photinus pyralis, UniProt P08659). As to the kind of experiment: firefly luciferase enzyme inhibitors, dose response, biochemical, luminescence (AID 1891).
Experiment [8] in a line: inhibitors of PGC1a acetylation in cells, dose response, cell-based, cherry-picked samples (AID 720514).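 Note: potency may reflect raised or lowered acetylation signal.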 It counts as functional.
Experiment [9] has as its system BJ. Kind of experiment: cytotoxicity toward BJ-TERT-LT-ST fibroblasts, dose response, cell-based, RAS-independent, luminescence (AID 1935).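 Note: BJ fibroblasts immortalized with TERT plus LT and ST oncogenes.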 It counts as functional. To be noted: Homo sapiens.
Experiment [10] has as its target Sphingosine 1-phosphate receptor 2 (Homo sapiens, UniProt O95136). Kind of experiment: Dose Response Cell Based Assay for Agonists of the S1P2 Receptor. [Related pubchem assays: 729, 736, 843 ]. It counts as functional.
Experiment [11] can be described thus: cells. The conditions noted are these: A549.
The next experiment deals with T1, Aminopeptidase N (Plasmodium falciparum FcB1/Columbia, UniProt O96935).
T1 sequence (O96935 whole entry): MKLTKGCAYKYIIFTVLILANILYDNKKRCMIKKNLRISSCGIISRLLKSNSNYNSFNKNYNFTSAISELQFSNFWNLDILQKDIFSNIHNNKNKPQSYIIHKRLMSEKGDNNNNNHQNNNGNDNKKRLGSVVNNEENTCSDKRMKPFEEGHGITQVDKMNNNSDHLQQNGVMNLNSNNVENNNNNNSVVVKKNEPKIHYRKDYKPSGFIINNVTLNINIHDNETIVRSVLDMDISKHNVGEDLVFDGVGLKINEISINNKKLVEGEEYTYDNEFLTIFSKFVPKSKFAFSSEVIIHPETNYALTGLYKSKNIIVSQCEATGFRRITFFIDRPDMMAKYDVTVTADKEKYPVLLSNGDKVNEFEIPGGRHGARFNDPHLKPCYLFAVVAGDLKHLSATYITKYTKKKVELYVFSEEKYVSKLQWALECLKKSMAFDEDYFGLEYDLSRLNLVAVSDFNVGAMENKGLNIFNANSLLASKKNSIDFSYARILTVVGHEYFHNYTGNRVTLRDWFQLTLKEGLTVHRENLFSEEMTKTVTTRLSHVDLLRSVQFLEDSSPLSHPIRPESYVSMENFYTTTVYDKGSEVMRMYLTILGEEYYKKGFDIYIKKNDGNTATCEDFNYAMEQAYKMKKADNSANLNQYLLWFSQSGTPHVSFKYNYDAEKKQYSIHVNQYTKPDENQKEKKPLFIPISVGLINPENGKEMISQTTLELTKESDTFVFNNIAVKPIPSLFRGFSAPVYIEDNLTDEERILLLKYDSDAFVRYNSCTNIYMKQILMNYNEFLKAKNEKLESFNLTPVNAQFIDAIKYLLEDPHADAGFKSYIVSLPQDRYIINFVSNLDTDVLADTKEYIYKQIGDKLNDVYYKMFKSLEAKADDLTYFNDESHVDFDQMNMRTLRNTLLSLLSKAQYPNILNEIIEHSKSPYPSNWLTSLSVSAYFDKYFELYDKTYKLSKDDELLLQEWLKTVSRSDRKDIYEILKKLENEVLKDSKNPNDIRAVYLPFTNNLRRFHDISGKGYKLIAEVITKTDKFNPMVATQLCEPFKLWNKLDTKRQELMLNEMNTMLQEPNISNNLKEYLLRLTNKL
As to the kind of experiment: P. falciparum M1AAP inhibitors, biochemical, fluorogenic H-Leu-NHMec substrate, 1536-well (AID 1445). Set-up: species or system Plasmodium falciparum 3D7, 3D7.

For experiment [12], the target named is T2, DNA repair and recombination protein RAD54-like (Homo sapiens, UniProt Q92698).
T2 sequence (Q92698 whole entry): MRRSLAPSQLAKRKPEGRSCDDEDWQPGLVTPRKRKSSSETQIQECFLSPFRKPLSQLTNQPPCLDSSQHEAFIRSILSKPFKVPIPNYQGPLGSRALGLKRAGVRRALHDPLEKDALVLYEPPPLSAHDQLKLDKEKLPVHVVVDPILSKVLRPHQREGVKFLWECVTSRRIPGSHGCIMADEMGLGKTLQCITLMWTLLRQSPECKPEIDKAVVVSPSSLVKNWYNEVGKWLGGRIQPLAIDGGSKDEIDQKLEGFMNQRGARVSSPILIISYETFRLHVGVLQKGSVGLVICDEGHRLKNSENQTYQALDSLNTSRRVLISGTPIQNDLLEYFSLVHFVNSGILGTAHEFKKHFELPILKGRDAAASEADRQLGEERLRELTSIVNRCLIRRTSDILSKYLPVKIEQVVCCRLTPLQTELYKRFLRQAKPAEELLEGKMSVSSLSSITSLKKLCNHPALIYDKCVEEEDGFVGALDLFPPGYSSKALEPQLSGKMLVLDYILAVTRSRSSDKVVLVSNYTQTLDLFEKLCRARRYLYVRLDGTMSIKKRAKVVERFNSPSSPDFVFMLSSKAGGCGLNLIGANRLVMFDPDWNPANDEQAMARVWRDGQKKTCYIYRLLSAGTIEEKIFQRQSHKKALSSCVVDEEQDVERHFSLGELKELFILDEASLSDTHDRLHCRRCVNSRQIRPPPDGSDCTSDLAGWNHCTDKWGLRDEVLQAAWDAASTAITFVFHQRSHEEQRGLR
As to the kind of experiment: inhibitors of human RAD54 branch migration, confirmation, biochemical, fluorescence, cherry-picked samples, dose series (AID 651657). The class given is functional.

A short description of experiment [13]: cells. The conditions noted are these: HEK293.
The nature of experiment [14]: Glucagon-like peptide 1 release potency, NCI-H716 cell line, dose-response, half-maximal inhibitory concentration (AID 1117344). The class given is functional, cell-based.
The nature of experiment [15]: half-maximal inhibitory concentration for glucagon-like peptide-1 release, STC-1 cell line, dose-response (AID 1117345). It counts as functional, cell-based.
Experiment [16] can be described thus: A375 melanoma cell cytotoxicity, dose response, counter-screen for MITF inhibitor project, CellTiter-Glo luminescence, dry powder, set 7 (AID 624490). The class given is functional, cell-based. To be noted: A-375. In general terms: Counterscreens check selectivity or assay interference.
A short description of experiment [17]: A375 melanoma cell viability loss, dose response, counter-screen for MITF inhibitor project, CellTiter-Glo luminescence, dry powder, set 4 (AID 624364).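 Note: A375 melanoma cells are MITF independent so this is a counter screen.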 The class given is functional, cell-based. The conditions noted are these: A-375.
Experiment [18] can be described thus: MITF Orthogonal Assay: MALME3 CTG Assay Measured in Cell-Based System Using Plate Reader - 2084-04_Inhibitor_Dose_DryPowder_Activity_Set6. The class given is functional. To be noted: MALME-3.
Experiment [19] can be described thus: A375 melanoma cell viability loss, dose response, counter-screen for MITF modulator project, CellTiter-Glo luminescence, dry powder, set 9 (AID 651591). To be noted: A-375. The class given is functional, cell-based.
Experiment [20] is described as follows: MITF Measured in Cell-Based System Using Plate Reader - 2084-01_Inhibitor_Dose_DryPowder_Activity_Set7. It counts as functional.
Experiment [21] can be described thus: TRPM1 promoter luciferase reporter signal decrease, dose response, MITF inhibitor project, cell-based, SK-MEL-5, dry powder, set 9 (AID 651588). It counts as functional.
The nature of experiment [22]: SK-MEL-5 parental cell viability reduction, dose response, orthogonal assay for MITF inhibitor project, CellTiter-Glo luminescence, dry powder, set 8 (AID 651586). The class given is functional, cell-based. A general note: Cellular ATP, detected with luciferase, serves as a proxy for viable cell number.
A short description of experiment [23]: MITF Orthogonal Assay: SK-MEL-5 CTG Assay Measured in Cell-Based System Using Plate Reader - 2084-02_Inhibitor_Dose_DryPowder_Activity_Set5. It counts as functional.
A short description of experiment [24]: SK-MEL-5 parental line viability, dose response, MITF inhibitor project, cell-based, CellTiter-Glo, dry powder, set 6 (AID 624429). The class given is functional.
Experiment [25] is described as follows: MALME3 melanoma cell viability reduction, dose response, orthogonal assay for MITF inhibitor project, CellTiter-Glo luminescence, dry powder, set 5 (AID 651584). The class given is functional, cell-based. The conditions noted are these: MALME-3.
Experiment [26] in a line: MITF Measured in Cell-Based System Using Plate Reader - 2084-01_Inhibitor_Dose_DryPowder_Activity_Set6. The class given is functional.
The target of experiment [27] is G-protein coupled receptor 183 (Homo sapiens, UniProt P32249). Kind of experiment: SAR confirmation of small molecule antagonists of the EBI2 receptor via a luminescent beta-arrestin assa. It counts as functional.
G-protein coupled receptor 183, sequence (P32249 whole entry): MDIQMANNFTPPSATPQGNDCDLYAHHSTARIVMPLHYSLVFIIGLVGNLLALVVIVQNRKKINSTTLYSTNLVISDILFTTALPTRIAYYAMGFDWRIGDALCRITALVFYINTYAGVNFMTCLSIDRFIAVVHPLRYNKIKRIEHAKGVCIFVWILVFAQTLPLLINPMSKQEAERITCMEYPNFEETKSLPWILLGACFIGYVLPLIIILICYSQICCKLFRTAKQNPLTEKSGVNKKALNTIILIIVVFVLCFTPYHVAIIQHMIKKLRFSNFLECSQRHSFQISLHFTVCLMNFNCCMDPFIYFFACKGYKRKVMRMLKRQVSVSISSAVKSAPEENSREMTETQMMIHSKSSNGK
The nature of experiment [28]: P. falciparum Dd2 growth inhibitors, dose response, SYBR Green, cherry-picked samples (AID 1159567). It counts as functional, cell-based.
Experiment [29] is described as follows: HepG2 cell cytotoxicity, dose response, cytotoxicity control, cherry-picked samples (AID 1159577). It counts as functional, cell-based.
A short description of experiment [30]: Dose-response inhibition of insulin secretion in a rat insulinoma line at 5 mM glucose (AID 1117331). To be noted: INS-1E. The class given is functional, cell-based.

Molecules are shown by their SMILES. Activity calls are given as the source filed them.

These results are taken from ChEMBL document CHEMBL1201862, “PubChem BioAssay data set” (2004).

As usually defined, the EC50 is the concentration at which the effect is half-maximal. One may read the AC50 as the concentration giving half of the maximal activity seen. One may read the IC50 as the point on the concentration scale where inhibition reaches its midpoint.

Luciferin 4-monooxygenase, sequence (P08659 whole entry): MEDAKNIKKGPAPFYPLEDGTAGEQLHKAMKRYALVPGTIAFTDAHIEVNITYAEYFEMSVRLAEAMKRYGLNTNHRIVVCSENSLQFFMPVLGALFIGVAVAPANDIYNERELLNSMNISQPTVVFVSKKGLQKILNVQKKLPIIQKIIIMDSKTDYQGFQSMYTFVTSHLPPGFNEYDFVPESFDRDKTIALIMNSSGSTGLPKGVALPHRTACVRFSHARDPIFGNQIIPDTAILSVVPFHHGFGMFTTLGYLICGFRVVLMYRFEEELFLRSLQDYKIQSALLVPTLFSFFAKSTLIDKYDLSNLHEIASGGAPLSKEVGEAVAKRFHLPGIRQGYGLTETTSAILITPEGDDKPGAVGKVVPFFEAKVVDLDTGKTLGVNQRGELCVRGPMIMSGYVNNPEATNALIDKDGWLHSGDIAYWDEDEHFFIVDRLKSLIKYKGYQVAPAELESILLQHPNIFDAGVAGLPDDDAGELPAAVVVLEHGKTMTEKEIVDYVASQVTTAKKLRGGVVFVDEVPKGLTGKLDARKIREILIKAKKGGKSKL
Sphingosine 1-phosphate receptor 2, sequence (O95136 whole entry): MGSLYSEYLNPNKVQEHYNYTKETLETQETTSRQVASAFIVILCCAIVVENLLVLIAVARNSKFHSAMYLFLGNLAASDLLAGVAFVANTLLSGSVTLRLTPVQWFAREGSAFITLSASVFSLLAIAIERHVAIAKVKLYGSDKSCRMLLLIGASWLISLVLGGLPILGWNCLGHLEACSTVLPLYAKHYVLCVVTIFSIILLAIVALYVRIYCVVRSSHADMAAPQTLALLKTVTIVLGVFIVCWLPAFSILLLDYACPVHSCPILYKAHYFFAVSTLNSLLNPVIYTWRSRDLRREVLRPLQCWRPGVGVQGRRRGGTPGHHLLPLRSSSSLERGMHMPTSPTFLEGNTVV

`NS(=O)(=O)c1cccc(NS(=O)(=O)c2ccc(/C=C/C(=O)OCC(=O)c3ccccc3)cc2)c1`: the CC50 in experiment [1] is > 40 µM (active).

Turning to `COc1ccccc1N1CCN(c2ccc(-c3ccccc3)nn2)CC1`, the EC50 in [2] is 1.7 µM (active); with BJ [3] it was 2.33 µM (active); in [4] it was 5.08 µM (active); in the experiment on BJ [5], 17 µM (active); in experiment [7] it was 3.72 µM (active); with BJ [9] it was 1.93 µM (active). The CC50 in experiment [6] was 13.7 µM (active). In addition, the AC50 in [8] was 25.9 µM (active).

In the case of `Cc1cc(C)n2cc(CSc3nnnn3-c3ccc(Cl)cc3)nc2n1`, the EC50 in [10] is recorded as > 50 µM (not active).

For the molecule `CCn1c(=N)c(C(=O)NCCCOC)cc2c(=O)n3cccc(C)c3nc21`, the AC50 in the experiment “cells [11]” is > 52 µM (inactive); in experiment [12], 33.6 µM (active); in “cells [13]”, > 52 µM (inactive). The half-inhibitory concentration (IC50) on Aminopeptidase N was 50.3 µM (active).

For the molecule `Cc1c(C)c2c(c(C)c1OC(=O)CCC(=O)OCCO)CC[C@@](C)(CCC[C@H](C)CCC[C@H](C)CCCC(C)C)O2`, the IC50 in experiment [14] and in [15] was > 40 µM (inactive) each time.

`Cc1cccc(S(=O)(=O)N2C[C@@H]3N[C@H](C2)[C@@H]3c2ccc(-c3ccccc3C)cc2)c1`: the AC50 in experiment [8] is 12.8 µM (active).

Take `NC1=C(NS(=O)(=O)c2cccs2)C(=O)c2ccccc2C1=O`: the AC50 in [16] is 53 µM (active); in experiment [17] it was > 70 µM (inactive); in experiment [18] it was 32.5 µM (active); in experiment [19], > 70 µM (inactive); in experiment [20] it was 5.42 µM (active); in experiment [21], 21.3 µM (active). Besides, the AC50 is 22.1 µM (active) in experiment [22]; 16.9 µM (active) in experiment [23]; 16.7 µM (active) in [24]; 32.5 µM (active) in [25]; 5.31 µM (active) in [26].

Turning to `O=C(/C=C/c1ccc(Br)cc1)N1CCN(Cc2ccc(Cl)cc2F)CC1`, the IC50 in [27] was 0.00811 µM (active).

Take `O=C(/C=C/c1ccc(Cl)cc1F)N1CCN(S(=O)(=O)c2ccccc2)CC1`: the IC50 in [27] is 0.184 µM (active).

As to `COc1cccc(CN(C)C[C@H]2OCc3ccccc3-c3c(n(C)c4ccccc34)C(=O)N([C@H](C)CO)C[C@H]2C)c1`, the AC50 in [28] is 6.01 µM (active); in experiment [29] it was > 39 µM (inactive).

As to `CN(C)CCOC(C)(c1ccccc1)c1ccccn1` (stereo not drawn) [DOXYLAMINE SUCCINATE], the IC50 in experiment [30] is > 33.3 µM (inactive).
